According to US7795220B2, “Conformationally constrained parathyroid hormones with alpha-helix stabilizers” (The General Hospital Corporation, priority 2003, dated 2010):
“And” between values parts separate entries of the source, which are not always exact repeats. Equal values may be shown once. Non-standard residues stand in square brackets, D forms with d. Residues, ends and D or L forms follow the SMILES beside them. No end group written: not given here. hArg = N=C(N)NCCCC[C@H](N)C(=O)O; Ac5c = NC1(C(=O)O)CCCC1; Deg = CCC(N)(CC)C(=O)O; Ac3c = NC1(C(=O)O)CC1; Aib = CC(C)(N)C(=O)O

What was measured:
[1] = molecular target: T1, P1R (recombinant P1R chimera) in HKRK-B28 cells (UniProt P25107+P25961, A364S/A509S/A517P/A524T/DEL519-521/E344G/G506A/H528S/I365V/I416T/I429T/K402R/K465R/L320I/M408V/N352H/S511P/S523T/T335G/T421L/T487S/V367L/V433I); test: biochemical; format: binding, opposum/rat chimera; details: for inhibition of tracer radioligand binding: concentrations as high as 1×10^−4M, HKRK-B28 cells; for IC50: apparent binding affinity (IC50), inhibition of 125I-rPTH(1-21) analog tracer binding, B28 cells
T1 construct: the opposum P1R from the N-terminus to the mid region of TM3; the rat P1R from the mid region of TM3 to the C-terminus; expressed in transfected cells
Description: (§1) Cell Culture. The cell line HKRK-B28 (Takasu, H., et al., J. Bone Miner. Res. 14:11-20 (1999)) was derived from the porcine kidney cell line, LLC-PK1 by stable transfection with plasmid DNA encoding a recombinant P1R chimera comprised of the opposum P1R from the N-terminus to the mid region of TM3 and the rat P1R from the mid region of TM3 to the C-terminus. The surface density of the P1R in these cells is ˜280,000 receptors per cell. The clonal cell line LdelNt-2 was derived from LLC-PK, cells via stable transfection with a plasmid encoding P1R-delNt, a recombinant human PTH-1 receptor construct in which most of the amino-terminal extracellular domain is deleted. These cells, as well as COS-7 cells and SaOS-2-B10 cells, were cultured at […] in T-75 flasks ([…]) in Dulbecco's modified Eagle's medium (DMEM) supplemented with fetal bovine serum (10%), penicillin G (20 units/ml), streptomycin sulfate (20 μg/ml) and amphotericin B (0.05 μg/ml) in a humidified atmosphere containing 5% CO2. Stock solutions of EGTA/trypsin and antibiotics were from GLBCO; fetal bovine serum was from Hyclone Laboratories (Logan, Utah). COS-7 cells sub-cultured in 24-well plates were transfected with plasmid DNA (200 ng per well) encoding the wild-type human P1R or truncated human P1R deleted for residues (24-181) (Shimizu, M., et al., J. Biol. Chem. 275:21836-21843 (2000)) that was purified by cesium chloride/ethidium bromide density gradient centrifugation, and FuGENE 6 transfection reagent (Roche Indianapolis Ind.) according to the manufacturer's recommended procedure. All cells, in 24-well plates, were treated with fresh media and shifted to 33° C. for 12 to 24 h prior to assay.
Competition Binding. Binding reactions were performed with HKRK-B28 cells or in COS-7 cells in 24-well plates. The cells were rinsed with 0.5 mL of binding buffer, and then treated successively with 100 μL binding buffer, 100 μL of binding buffer containing various amounts of unlabeled competitor ligand, and 100 μL of binding buffer containing ca. 100,000 cpm of ^125I-[Aib^1,3,Nle^8,Gln^10,Har^11,Ala^12,Trp^14,Arg^19,Tyr^21]rPTH(1-21) (SEQ. ID. NO. 36) (ca. 26 fmol; final volume=300 μL). Incubations were 4 to 6 h at 4° C., at which time near equilibrium conditions were attained. Cells were then placed on ice, the binding medium was removed, and the monolayer was rinsed three times with 0.5 mL of cold binding buffer. The cells were subsequently lysed with 0.5 mL 5N NaOH and counted for radioactivity. For each tracer and in each experiment, the non-specific binding was determined as the radioactivity that bound in the presence of the same unlabeled peptide at a concentration of 1 μM, and was ˜1% of total radioactivity added for each tracer. The maximum specific binding (B0) was the total radioactivity bound in the absence of competing ligand, corrected for nonspecific binding, and for each tracer, ranged from 8% to 20% of the total radioactivity added. Nonlinear regression was used to calculate binding IC50 values (see below). Scatchard transformations of homologous competition binding data derived from studies with 26 fmol of ^125I-[Aib^1,3,Nle^8,Gln^10,Har^11,Ala^12,Trp^14, Arg^19,Tyr^21]rPTH(1-21) (SEQ. ID. NO. 36) were employed for estimations of apparent equilibrium dissociation constant (kDapps) and total number of ligand binding sites (Bmax), assuming a single class of binding sites and equal affinities of the iodinated and non iodinated ligand.
Data Calculation. Calculations were performed using Microsoft® Excel. Nonlinear regression analyses of binding and cAMP dose-response data were performed using the four-parameter equation: yp=Min+[(Max−Min)/(1+(IC50/x)^slope)]. The Excel Solver function was utilized for parameter optimization, as described previously (Carter, P. H., et al., Endocrinology 140: 4972-4981 (1999); Bowen, W. P., and Jerman, J. C., Trends in Pharmacol. Sci. 16: 413-417 (1995)). […]

[2] = test system: P1R (recombinant P1R chimera) in HKRK-B28 cells; test: cAMP stimulation in HKRK-B28 cells; format: cell-based, opposum/rat chimera; details: for cAMP-stimulating potency higher than that of parent [M]PTH(1-14) / cAMP signaling potency diminished relative to parent [M]PTH(1-14): relative to parent [M]PTH(1-14)
Description: as §1
cAMP Stimulation. Stimulation of cells with peptide analogs was performed in 24-well plates. Cells were rinsed with 0.5 mL of binding buffer (50 mM Tris-HCl, 100 mM NaCl, 5 mM KCl, 2 mM CaCl2, 5% heat-inactivated horse serum, 0.5% fetal bovine serum, adjusted to pH 7.5 with HCl) and treated with 200 μL of cAMP assay buffer (Delbecco's modified Eagle's medium containing 2 mM 3-isobutyl-1-methylxanthine, 1 mg/mL bovine serum albumin, 35 mM Hepes-NaOH, pH 7.4) and 100 μL of binding buffer containing varying amounts of peptide analog (final volume=300 μL). The medium was removed after incubation for 30 to 60 minutes at room temperature, and the cells were frozen on dry ice, lysed with 0.5 mL 50 mM HCl, and refrozen ([…]). The cAMP content of the diluted lysate was determined by radioimmunoassay. The EC50 response values were calculated using nonlinear regression (see below).
Data Calculation. Calculations were performed using Microsoft® Excel. Nonlinear regression analyses of binding and cAMP dose-response data were performed using the four-parameter equation: yp=Min+[(Max−Min)/(1+(IC50/x)^slope)]. The Excel Solver function was utilized for parameter optimization, as described previously (Carter, P. H., et al., Endocrinology 140: 4972-4981 (1999); Bowen, W. P., and Jerman, J. C., Trends in Pharmacol. Sci. 16: 413-417 (1995)). Differences between paired data sets were statistically evaluated using a one-tailed Student's t-test, assuming unequal variances for the two sets.

[3] = relative to parent [M]PTH(1-14)

T1 sequence (P25107+P25961 fused with the stated changes): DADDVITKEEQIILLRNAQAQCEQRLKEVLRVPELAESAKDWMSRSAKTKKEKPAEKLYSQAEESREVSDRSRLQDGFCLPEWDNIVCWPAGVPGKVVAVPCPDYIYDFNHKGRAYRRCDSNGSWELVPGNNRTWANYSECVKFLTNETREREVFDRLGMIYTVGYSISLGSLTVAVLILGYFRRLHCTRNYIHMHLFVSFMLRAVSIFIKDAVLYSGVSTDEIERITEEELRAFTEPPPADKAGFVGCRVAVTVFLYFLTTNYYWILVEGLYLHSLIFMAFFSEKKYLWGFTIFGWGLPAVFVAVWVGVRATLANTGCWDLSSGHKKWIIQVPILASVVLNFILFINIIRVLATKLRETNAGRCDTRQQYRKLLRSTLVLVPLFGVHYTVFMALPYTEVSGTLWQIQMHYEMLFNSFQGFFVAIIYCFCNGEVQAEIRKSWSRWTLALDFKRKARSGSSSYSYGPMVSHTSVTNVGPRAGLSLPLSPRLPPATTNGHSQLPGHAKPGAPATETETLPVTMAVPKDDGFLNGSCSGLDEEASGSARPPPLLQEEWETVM

Molecule: [Ac5c^1,Aib^3]PTH(1-9)NH2 ([Ac5c]V[Aib]EIQLMH-NH2; N-terminus assumed; SMILES CC[C@H](C)[C@H](NC(=O)[C@H](CCC(=O)O)NC(=O)C(C)(C)NC(=O)[C@@H](NC(=O)C1(N)CCCC1)C(C)C)C(=O)N[C@@H](CCC(N)=O)C(=O)N[C@@H](CC(C)C)C(=O)N[C@@H](CCSC)C(=O)N[C@@H](Cc1c[nH]cn1)C(N)=O) [[Ac5c^1,Aib^3,M]PTH(1-9)]
- inhibition of tracer radioligand binding [1]: neither peptide inhibited the binding
- increase in cAMP levels relative to basal ([2]; HKRK-B28 cells, peptide at 1×10^−4M): six
- cAMP agonist activity / signaling potency (in words) [2]: clear cAMP response
- cAMP agonist activity at single high concentration (in words) ([2]; peptide at 10^−4M): clear agonist activity

Molecule: CC[C@H](C)[C@H](NC(=O)[C@H](CCC(=O)O)NC(=O)C(C)(C)NC(=O)[C@@H](NC(=O)C1(N)CCCC1)C(C)C)C(=O)N[C@@H](CCC(N)=O)C(=O)N[C@@H](CC(C)C)C(=O)N[C@@H](CCSC)C(=O)N[C@@H](Cc1c[nH]cn1)C(=O)N[C@@H](CCC(N)=O)C(N)=O [[Ac5c^1,Aib^3,M]PTH(1-10), [Ac5c^1,Aib^3,Gln^10]PTH(1-10)NH2] (H-[Ac5c]V[Aib]EIQLMHQ-NH2)
- inhibition of tracer radioligand binding [1]: neither peptide inhibited the binding
- increase in cAMP levels relative to basal ([2]; HKRK-B28 cells, peptide at 10 μM): 33 fold
- EC50 ([2]; HKRK-B28 cells, read-out: cAMP EC50 estimated from dose-response analysis): ~3 µM
- cAMP agonist activity / signaling potency (in words) [2]: clear cAMP response
- cAMP agonist activity / signaling potency (in words) ([2]; Aib^3, Gln^10]PTH(1-10)): fall cAMP agonist, albeit with micromolar potency

Molecule: Ac5c-3: parent [M]PTH(1-14) analog in which alanine-3 was substituted with 1-aminocyclopentane-1-carboxylic acid (Ac5c)
- P1R binding affinity (in words) [1]: little or no effect on binding affinity
- cAMP-stimulating potency higher than that of parent [M]PTH(1-14) [2]: < two

Molecule: CC[C@H](C)[C@H](NC(=O)[C@H](CCC(=O)O)NC(=O)[C@H](C)NC(=O)[C@@H](NC(=O)[C@H](C)N)C(C)C)C(=O)N[C@@H](CCC(N)=O)C(=O)N[C@@H](CC(C)C)C(=O)N[C@@H](CCSC)C(=O)N[C@@H](Cc1cnc[nH]1)C(=O)N[C@@H](CCC(N)=O)C(=O)N[C@@H](CCCCN=C(N)N)C(=O)N[C@@H](C)C(=O)N[C@@H](CCCCN)C(=O)N[C@@H](Cc1c[nH]c2ccccc12)C(N)=O [[M]PTH(1-14), [Ala^1,3,12,Gln^10,Har^11,Trp^14]PTH(1-14)NH2, reference compound] (H-AVAEIQLMHQ[hArg]AKW-NH2)
- IC50 [1]: ~3 µM and 0.6 µM

Molecule: CC[C@H](C)[C@H](NC(=O)[C@H](CCC(=O)O)NC(=O)C1(NC(=O)[C@@H](NC(=O)[C@H](C)N)C(C)C)CCCC1)C(=O)N[C@@H](CCC(N)=O)C(=O)N[C@@H](CC(C)C)C(=O)N[C@@H](CCSC)C(=O)N[C@@H](Cc1c[nH]cn1)C(=O)N[C@@H](CCC(N)=O)C(=O)N[C@@H](CCCCNC(=N)N)C(=O)N[C@@H](C)C(=O)N[C@@H](CCCCN)C(=O)N[C@@H](Cc1c[nH]c2ccccc12)C(N)=O [Ac5c^3] (H-AV[Ac5c]EIQLMHQ[hArg]AKW-NH2)
- IC50 [1]: ~3 µM

Molecule: [Ac3c^1,3,Gln^10,Har^11,Ala^12,Trp^14]PTH(1-14)NH2 ([Ac3c]V[Ac3c]EIQLMHQ[hArg]AKW-NH2) [[Ac3c^1,3,M]PTH(1-14)]
- P1R binding affinity (in words) [1]: comparable to the parent peptide
- cAMP agonist activity / signaling potency (in words) [2]: comparable to the parent peptide

Molecule: Ac3c-3: parent [M]PTH(1-14) analog in which alanine-3 was substituted with 1-aminocyclopropane-1-carboxylic acid (Ac3c)
- binding affinity lower than that of parent [M]PTH(1-14) [1, 3]: approximately 10 fold
- cAMP-stimulating potency higher than that of parent [M]PTH(1-14) [2]: < two

Molecule: CC[C@H](C)[C@H](NC(=O)[C@H](CCC(=O)O)NC(=O)C(CC)(CC)NC(=O)[C@@H](NC(=O)[C@H](C)N)C(C)C)C(=O)N[C@@H](CCC(N)=O)C(=O)N[C@@H](CC(C)C)C(=O)N[C@@H](CCSC)C(=O)N[C@@H](Cc1c[nH]cn1)C(=O)N[C@@H](CCC(N)=O)C(=O)N[C@@H](CCCCNC(=N)N)C(=O)N[C@@H](C)C(=O)N[C@@H](CCCCN)C(=O)N[C@@H](Cc1c[nH]c2ccccc12)C(N)=O [Deg-3] (H-AV[Deg]EIQLMHQ[hArg]AKW-NH2)
- IC50 [1]: ~3 µM
- P1R binding affinity (in words) [1]: little or no effect on binding affinity
- binding affinity higher than that of parent [M]PTH(1-14) [1, 3]: around 1.5 fold
- cAMP signaling potency diminished relative to parent [M]PTH(1-14) [2]: approximately 10 fold
- cAMP signaling potency diminished relative to parent [M]PTH(1-14) ([2]; listed as Deg^3): ~40 fold
